{"source": "patent US8957049B2", "about": "“Inhibitors of fatty acid amide hydrolase” (Infinity Pharmaceuticals, Inc., priority 2008, dated 2015)", "note": "pKi: −log10 of the molar value."}
{"target": "T1, human FAAH (Homo sapiens, UniProt O00519)", "T1 construct": "host or cells: COS-7 cells, transient transfection (FuGENE 6); 13,000 g membrane fraction solubilised in 1% Triton X-100", "T1 sequence (O00519 1-579)": "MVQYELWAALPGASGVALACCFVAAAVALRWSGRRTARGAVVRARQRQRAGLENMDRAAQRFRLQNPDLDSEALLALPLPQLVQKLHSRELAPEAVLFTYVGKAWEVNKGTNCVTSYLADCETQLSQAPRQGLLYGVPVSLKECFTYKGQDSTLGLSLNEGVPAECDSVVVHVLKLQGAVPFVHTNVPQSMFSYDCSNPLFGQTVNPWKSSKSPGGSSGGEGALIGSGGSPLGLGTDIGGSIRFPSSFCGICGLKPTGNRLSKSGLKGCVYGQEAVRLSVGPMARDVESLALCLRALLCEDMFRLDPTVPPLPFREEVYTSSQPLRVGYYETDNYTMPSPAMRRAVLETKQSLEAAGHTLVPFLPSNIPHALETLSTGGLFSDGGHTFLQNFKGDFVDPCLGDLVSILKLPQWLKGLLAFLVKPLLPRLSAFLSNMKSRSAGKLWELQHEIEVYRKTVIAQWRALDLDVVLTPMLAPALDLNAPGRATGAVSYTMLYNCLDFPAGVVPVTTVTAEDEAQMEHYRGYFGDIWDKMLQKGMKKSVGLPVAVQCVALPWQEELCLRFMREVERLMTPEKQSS", "test": "Human FAAH biochemical inhibition assay (AMC arachidonoyl amide fluorescence)", "conditions": "Table A, read-out: Activity (Ki) of other boronic acids tested, Table A", "procedure,_shortened": "(§1)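 Human FAAH from solubilized membranes of transiently transfected COS-7 cells, 0.1 mg/mL in 50 mM Hepes pH 7.5, 1 mM EDTA, 0.2% Triton X-100, preincubated 30 min at room temperature with 3-fold serially diluted inhibitor. Hydrolysis of AMC arachidonoyl amide read by fluorescence (ex 355/em 460 nm). Data fitted to single-site competitive inhibition with Km fixed at 9 μM.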"}
{"smiles": "O=S(=O)(c1ccc(B(O)O)cc1)n1cccc1", "pKi": "7.00 to 8.00"}
{"smiles": "CC(=O)Nc1ccc(B(O)O)cc1", "pKi": "< 6.00"}
{"smiles": "COCCNC(=O)c1ccc(B(O)O)cc1", "pKi": "6.00 to 7.00"}
{"smiles": "CC(=O)NCc1ccc(B(O)O)cc1", "pKi": "< 6.00"}
{"target": "T1, human FAAH", "test": "Human FAAH biochemical inhibition assay (AMC arachidonoyl amide fluorescence)", "conditions": "class given in each Example, read-out: Activity (Ki, inhibition of human FAAH)", "procedure,_shortened": "as §1"}
{"smiles": "CCCCCc1nnc(-c2coc(B(O)O)c2)o1", "note": "[Compound 60]", "pKi": "7.00 to 8.00"}
{"smiles": "Cc1nc(CC(=O)N/N=C/c2ccccc2B(O)O)cs1", "note": "[Compound 123]", "pKi": "< 6.00"}
{"smiles": "CC(C)(C)OC(=O)NCc1nnc(-c2ccc(B(O)O)cc2)o1", "note": "[Compound 83]", "pKi": "7.00 to 8.00"}
{"smiles": "OB(O)c1ccccc1-c1nnc(CCC(F)(F)F)o1", "note": "[Compound 285]", "pKi": "< 6.00"}
{"smiles": "CCCN1CCC(Cc2nc3ccc(B(O)O)cc3o2)CC1", "note": "[Compound 303]", "pKi": "6.00 to 7.00"}
{"smiles": "COC(=O)NCCc1nnc(-c2ccc(B(O)O)cc2)o1", "note": "[Compound 86]", "pKi": "7.00 to 8.00"}
{"smiles": "O=C(CCc1ccc(B(O)O)cc1)NCc1ccccc1", "note": "[Compound 324]", "pKi": "6.00 to 7.00"}
{"smiles": "OB(O)c1ccc2nc(OC3CCCC3)ccc2c1", "note": "[Compound 190]", "pKi": "≥ 8.00"}
{"smiles": "OB(O)c1ccc(COc2cccc(B(O)O)c2)cc1", "note": "[Compound 326]", "pKi": "≥ 8.00"}
{"smiles": "COC(=O)/C=C/c1cc(OCCc2ccccc2)ccc1B(O)O", "note": "[Compound 100]", "pKi": "≥ 8.00"}
{"smiles": "COC(=O)/C=C/c1ccsc1B(O)O", "note": "[Compound 101]", "pKi": "6.00 to 7.00"}
{"smiles": "OB(O)c1ccc(OCCc2ccccc2)cc1/C=C/CCc1ccccc1", "note": "[Compound 184]", "pKi": "6.00 to 7.00"}
{"smiles": "CCCc1noc(-c2ccc(B(O)O)cc2)n1", "note": "[Compound 272]", "pKi": "≥ 8.00"}
{"smiles": "CCCCCC1(CCCCC)CC(c2ccc(B(O)O)cc2)=NO1", "note": "[Compound 164]", "pKi": "6.00 to 7.00"}
{"smiles": "COc1cccc(Cn2cc(-c3ccc(B(O)O)cc3)nn2)c1", "note": "[Compound 128]", "pKi": "7.00 to 8.00"}
{"smiles": "OB(O)c1ccc(-n2nncc2-c2ccccc2)cc1", "note": "[Compound 144]", "pKi": "7.00 to 8.00"}
{"smiles": "O=[N+]([O-])c1cccc(Oc2ccc3cc(B(O)O)ccc3n2)c1", "note": "[Compound 195]", "pKi": "≥ 8.00"}
{"smiles": "OB(O)c1ccc2nc(Oc3ccccc3)sc2c1", "note": "[Compound 214]", "pKi": "≥ 8.00"}
{"smiles": "OB(O)c1cccc(-c2nnc(-c3ccccc3)o2)c1", "note": "[Compound 63]", "pKi": "6.00 to 7.00"}
{"smiles": "CC(=O)NCCc1nnc(-c2ccc(B(O)O)cc2)o1", "note": "[Compound 85]", "pKi": "6.00 to 7.00"}
{"smiles": "OB(O)c1ccc(-c2cnn(Cc3ccccc3)c2)cc1", "note": "[Compound 227]", "pKi": "≥ 8.00"}
{"smiles": "O=C1CCCN1CCc1nnc(-c2ccc(B(O)O)cc2)o1", "note": "[Compound 10]", "pKi": "6.00 to 7.00"}
{"smiles": "Cc1nnc(-c2cc(C(F)(F)F)ccc2B(O)O)o1", "note": "[Compound 11]", "pKi": "6.00 to 7.00"}
{"smiles": "OB(O)c1ccc(-c2nc(-c3ccccc3)c[nH]2)cc1F", "note": "[Compound 7]", "pKi": "< 6.00"}
{"smiles": "CC(C)(C)OC(=O)N1CCC(c2ccc(B(O)O)cc2)CC1", "note": "[Compound 233]", "pKi": "≥ 8.00"}
{"smiles": "CCCCCc1nc2ccc(B(O)O)cc2o1", "note": "[Compound 245]", "pKi": "≥ 8.00"}
{"smiles": "CCCc1nnc(-c2ccc(B(O)O)c(-c3nnc(CCC)o3)c2)o1", "note": "[Compound 76]", "pKi": "≥ 8.00"}
{"smiles": "OB(O)c1ccc(-n2cc(-c3ccccc3)cn2)cc1", "note": "[Compound 231]", "pKi": "≥ 8.00"}
{"smiles": "NCCc1nnc(-c2ccc(B(O)O)cc2)o1", "note": "[Compound 84]", "pKi": "< 6.00"}
{"smiles": "OB(O)c1ccc(Oc2cncc(F)c2)cc1", "note": "[Compound 297]", "pKi": "≥ 8.00"}
{"smiles": "O=C(Cc1ccccc1)N/N=C/c1cc(OCc2ccccc2)ccc1B(O)O", "note": "[Compound 124]", "pKi": "7.00 to 8.00"}
{"smiles": "CCC/C=C/c1nnc(-c2ccc(B(O)O)cc2)o1", "note": "[Compound 25]", "pKi": "≥ 8.00"}
{"smiles": "OB(O)c1ccc2oc(CCc3ccccc3)cc2c1", "note": "[Compound 291]", "pKi": "≥ 8.00"}
{"smiles": "CCCCC(C)c1nnc(-c2ccc(B(O)O)cc2)o1", "note": "(centres unmarked) [Compound 34]", "pKi": "≥ 8.00"}
{"smiles": "OCCN1N=Cc2cc(OCCc3ccccc3)ccc2B1O", "note": "[Compound 107]", "pKi": "< 6.00"}
{"smiles": "OB(O)c1ccc2ccc(Oc3ccccc3)nc2c1", "note": "[Compound 188]", "pKi": "≥ 8.00"}
{"smiles": "CN(c1ccccc1)c1ccc2cc(B(O)O)ccc2n1", "note": "[Compound 205]", "pKi": "7.00 to 8.00"}
{"smiles": "OB(O)c1ccc(-c2cccc3[nH]ccc23)cc1F", "note": "[Compound 230]", "pKi": "7.00 to 8.00"}
{"smiles": "COc1ccc2cc(B(O)O)ccc2n1", "note": "[Compound 202]", "pKi": "7.00 to 8.00"}
{"smiles": "CCCc1nnc(-c2cc(Oc3cccnc3)ccc2B(O)O)o1", "note": "[Compound 296]", "pKi": "7.00 to 8.00"}
